From patent publication US8796283B2, “Indole and azaindole modulators of the alpha 7 nachr” (Proximagen Limited, priority 2009, dated 2014) come the findings set out here.

Structures are written as SMILES. Where a name gives a salt, the structure may show the parent alone.

T1 sequence (P36544 23-502): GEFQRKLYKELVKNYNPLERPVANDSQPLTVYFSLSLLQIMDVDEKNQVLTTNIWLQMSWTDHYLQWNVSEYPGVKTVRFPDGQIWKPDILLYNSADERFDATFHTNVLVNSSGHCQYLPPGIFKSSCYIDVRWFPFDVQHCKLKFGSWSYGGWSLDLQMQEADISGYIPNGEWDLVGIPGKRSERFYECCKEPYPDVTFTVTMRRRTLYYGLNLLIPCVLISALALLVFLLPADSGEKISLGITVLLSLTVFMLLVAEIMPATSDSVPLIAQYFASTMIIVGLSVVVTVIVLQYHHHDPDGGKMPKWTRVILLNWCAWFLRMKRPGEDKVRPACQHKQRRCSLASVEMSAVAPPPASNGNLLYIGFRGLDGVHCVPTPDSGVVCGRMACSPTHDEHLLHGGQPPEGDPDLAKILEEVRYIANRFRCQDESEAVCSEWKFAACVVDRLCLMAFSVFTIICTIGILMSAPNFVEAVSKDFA

One assay has as its target T1, human α7 nAChR (Homo sapiens, UniProt P36544).
T1 construct: expressed in transfected cells; host or cells: GH4C1 (rat pituitary) cell line, stably transfected
In words: cell-based calcium flux assay (FLIPR) for PAM activity, nicotine-evoked response. The settings on record: GH4C1 cell line stably transfected with human α7 nAChR; potentiation of nicotine calcium flux. The procedure:
The PAM activity of the compounds of the invention at the α7 nAChR may be determined using the following cell-based calcium flux assay which uses a Fluorimetric Image Plate Reader (FLIPR) (see Schroeder et al.; J. Biomolecular Screening, 1(2), p 75-80, 1996). GH4C1 cell line stably transfected with human α7 nAChR was suspended in a 384 well plate and incubated at 30° C. for 48 h in a 5% carbon dioxide atmosphere. The growth media was removed and the cells washed three times with a solution of Hanks' balanced salt solution (HBSS), 20 mM HEPES and 2.5 mM probenecid leaving 20 μl washing solution in each well. A loading solution (20 μl) containing HBSS, probenecid, 1-4 μM Fluo4 AM (a calcium indicator dye) and pluronic acid was added and the plate incubated for 45 min at 37° C. under an atmosphere free from carbon dioxide. The cells were washed three times leaving 30 μl in each well. The plate containing the cells and calcium indicator dye were then transferred to the FLIPR. The assay was initiated by collecting baseline datapoints at 10 second intervals followed by addition of the test compound in buffer solution (0.33% DMSO) and diluted to a final concentration of 10 μM and serial dilution of the wells, 1:2 or 1:3, gave a low concentration of <1 nM. Following a further 5-10 mins 10 μl of 50 μM nicotine was added and data collected for 2-3 mins. Nicotine produced a rapid, transient and reproducible calcium flux which could be potentiated with the positive allosteric modulator test compounds.
For `CCc1cc(NCc2cnc3[nH]c(C(F)(F)F)cc3c2)ncn1.Cl` [5 HCl, 6-Ethyl-N-{[2-(trifluoromethyl)-1H-pyrrolo[2,3-b]pyridin-5-yl]methyl}-4-pyrimidinamine HCl], the “pEC50 Mean” value is given as “* (pEC50 mean of at least 5.0)”. Regarding `CC(F)(F)c1cc(NCc2cnc3[nH]c(C(F)(F)F)cc3c2)ncn1.Cl` [8 HCl, 6-(1,1-Difluoroethyl)-N-{[2-(trifluoromethyl)-1H-pyrrolo[2,3-b]pyridin-5-yl]methyl}-4-pyrimidinamine hydrochloride], the pEC50 came out at 6 and the “pEC50 Mean” value is listed as “*** (pEC50 mean of at least 6.0)”. As for `Cl.FC(F)c1cc(NCc2cnc3[nH]c(C(F)(F)F)cc3c2)ncn1` [10 HCl, 6-(Difluoromethyl)-N-{[2-(trifluoromethyl)-1H-pyrrolo[2,3-b]pyridin-5-yl]methyl}-4-pyrimidinamine hydrochloride], the “pEC50 Mean” value was “** (pEC50 mean of at least 5.5)”. Consider `Cl.FC(F)(F)c1cc2cc(CNc3cc(C4CC4)ncn3)cnc2[nH]1` [14 HCl], for which the “pEC50 Mean” value is “* (pEC50 mean of at least 5.0)”.

The same assay, now with this note: GH4C1 cell line stably transfected with human α7 nAChR; potentiation of nicotine calcium flux; read-out: pEC50 (converted).
In the case of `CC(F)(F)c1cc(NCc2cnc3[nH]c(C(F)(F)F)cc3c2)ncn1` [Example 8, 6-(1,1-Difluoroethyl)-N-{[2-(trifluoromethyl)-1H-pyrrolo[2,3-b]pyridin-5-yl]methyl}-4-pyrimidinamine], the EC50 is 1 µM. In the case of `[2H]C([2H])(Nc1cc(C(C)(F)F)ncn1)c1cnc2[nH]c(C(F)(F)F)cc2c1` [Example 8-d], the EC50 was 1.26 µM. `CC(C)(F)c1cc(NCc2cnc3[nH]c(C(F)(F)F)cc3c2)ncn1` [Example 15, 6-(1-Fluoro-1-methylethyl)-N-{[2-(trifluoromethyl)-1H-pyrrolo[2,3-b]pyridin-5-yl]methyl}-4-pyrimidinamine]: the EC50 is 0.398 µM. Still for that read-out and setting: next, `[2H]C([2H])(Nc1cc(C(C)(C)F)ncn1)c1cnc2[nH]c(C(F)(F)F)cc2c1` [Example 15-d, 6-(1-Fluoro-1-methylethyl)-N-{[2-(trifluoromethyl)-1H-pyrrolo[2,3-b]pyridin-5-yl]methyl}-4-pyrimidinamine-d2]: 0.631 µM.

Staying with this assay, now noted: GH4C1 cell line stably transfected with human α7 nAChR; potentiation of nicotine calcium flux; read-out: pEC50 Mean (converted).
On to `CC(F)c1cc(NCc2cnc3[nH]c(C(F)(F)F)cc3c2)ncn1` (stereo not drawn) [9 HCl], for which the EC50 was at most 3.16 µM. As to `FCc1cc(NCc2cnc3[nH]c(C(F)(F)F)cc3c2)ncn1` [11 HCl, 6-(Fluoromethyl)-N-{[2-(trifluoromethyl)-1H-pyrrolo[2,3-b]pyridin-5-yl]methyl}-4-pyrimidinamine hydrochloride], the EC50 is at most 10 µM.

For `Cl.[2H]C([2H])(Nc1cc(C2CC2)ncn1)c1cnc2[nH]c(C(F)(F)F)cc2c1` [14-d HCl], the EC50 is at most 3.16 µM. `CCc1ncnc(NCc2cnc3[nH]c(C(F)(F)F)cc3c2)c1F` [16 HCl, 6-Ethyl-5-fluoro-N-{[2-(trifluoromethyl}-1H-pyrrolo[2,3-b]pyridin-5-yl]methyl}-4-pyrimidinamine hydrochloride]: the EC50 is at most 1 µM.

Turning to `Cc1c(NCc2cnc3[nH]c(C(F)(F)F)cc3c2)ncnc1C(C)F` (stereo not drawn) [20 HCl], the EC50 is at most 1 µM. For `Cc1c(NCc2cnc3[nH]c(C(F)(F)F)cc3c2)ncnc1C(C)(F)F` [21 HCl], the EC50 was at most 1 µM. With `Cc1c(NCc2cnc3[nH]c(C(F)(F)F)cc3c2)ncnc1C(F)(F)F` [22 HCl, 5-Methyl-6-(trifluoromethyl)-N-{[2-(trifluoromethyl)-1H-pyrrolo[2,3-b]pyridin-5-yl]methyl}-4-pyrimidinamine hydrochloride], the EC50 was at most 1 µM.

Take `Cc1c(CF)ncnc1NCc1cnc2[nH]c(C(F)(F)F)cc2c1` [24 HCl]: the EC50 is at most 10 µM. For `Cc1c(NCc2cnc3[nH]c(C(F)(F)F)cc3c2)ncnc1C1CC1` [25 HCl, 6-Cyclopropyl-5-methyl-N-{[2-(trifluoromethyl)-1H-pyrrolo[2,3-b)pyridin-5-yl]methyl}-4-pyrimidinamine hydrochloride], the EC50 is at most 3.16 µM. For `FC(F)(F)c1cc(NCc2cnc3[nH]c(C(F)(F)F)cc3c2)ncn1` [Example 1, 6-(Trifluoromethyl)-N-{[2-(trifluoromethyl)-1H-pyrrolo[2,3-b]pyridin-5-yl]methyl}-4-pyrimidinamine], the EC50 is at most 1 µM. On the same count and under the same terms, next, `CC(C)c1cc(NCc2cnc3[nH]c(C(F)(F)F)cc3c2)ncn1` [Example 2, 6-(1-Methylethyl)-N-{[2-(trifluoromethyl)-1H-pyrrolo[2,3-b]pyridin-5-yl]methyl}-4-pyrimidinamine]: at most 10 µM; `N#Cc1cc(NCc2cnc3[nH]c(C(F)(F)F)cc3c2)ncn1` [Example 3, 6-({[2-(Trifluoromethyl)-1H-pyrrolo[2,3-b]pyridin-5-yl]methyl}amino)-4-pyrimidinecarbonitrile]: at most 3.16 µM.

Regarding `CC(C)(C)c1cc(NCc2cnc3[nH]c(C(F)(F)F)cc3c2)ncn1` [Example 4, 6-(1,1-Dimethylethyl)-N-{[2-(trifluoromethyl)-1H-pyrrolo[2,3-b]pyridin-5-yl]methyl}-4-pyrimidinamine], the EC50 is at most 3.16 µM. For the compound `CCc1cc(NCc2cnc3[nH]c(C(F)(F)F)cc3c2)ncn1` [Example 5, 6-Ethyl-N-{[2-(trifluoromethyl)-1H-pyrrolo[2,3-b]pyridin-5-yl]methyl}-4-pyrimidinamine], the EC50 was at most 10 µM.

Take `N#CCc1cc(NCc2cnc3[nH]c(C(F)(F)F)cc3c2)ncn1` [Example 6, [6-({[2-(Trifluoromethyl)-1H-pyrrolo[2,3-b]pyridin-5-yl]methyl}amino)-4-pyrimidinyl]acetonitrile]: the EC50 is at most 10 µM. Take `CC(=O)c1cc(NCc2cnc3[nH]c(C(F)(F)F)cc3c2)ncn1` [Example 7, 1-[6-({[2-(Trifluoromethyl)-1H-pyrrolo[2,3-b]pyridin-5-yl]methyl}amino)-4-pyrimidinyl]ethanone]: the EC50 was at most 10 µM. Still for that read-out and setting: next, `CC(F)(F)c1cc(NCc2cnc3[nH]c(C(F)(F)F)cc3c2)ncn1` [Example 8, 6-(1,1-Difluoroethyl)-N-{[2-(trifluoromethyl)-1H-pyrrolo[2,3-b]pyridin-5-yl]methyl}-4-pyrimidinamine]: at most 1 µM; `[2H]C([2H])(Nc1cc(C(C)(F)F)ncn1)c1cnc2[nH]c(C(F)(F)F)cc2c1` [Example 8-d]: at most 3.16 µM. Regarding `CC(F)c1cc(NCc2cnc3[nH]c(C(F)(F)F)cc3c2)ncn1` (stereo not drawn) [Example 9, 6-(1-Fluoroethyl)-N-{[2-(trifluoromethyl)-1H-pyrrolo[2,3-b]pyridin-5-yl]methyl}-4-pyrimidinamine], the EC50 was at most 10 µM.

`FC(F)c1cc(NCc2cnc3[nH]c(C(F)(F)F)cc3c2)ncn1` [Example 10, 6-(Difluoromethyl)-N-{[2-(trifluoromethyl)-1H-pyrrolo[2,3-b]pyridin-5-yl]methyl}-4-pyrimidinamine]: the EC50 was at most 3.16 µM.

Turning to `FCc1cc(NCc2cnc3[nH]c(C(F)(F)F)cc3c2)ncn1` [Example 11, 6-(Fluoromethyl)-N-{[2-(trifluoromethyl)-1H-pyrrolo[2,3-b]pyridin-5-yl]methyl}-4-pyrimidinamine], the EC50 was at most 3.16 µM. As to `FC(F)(F)c1cc(NCc2ccc3[nH]c(C(F)(F)F)cc3c2)ncn1` [Example 12, 6-(Trifluoromethyl)-N-{[2-(trifluoromethyl)-1H-indol-5-yl]methyl}-4-pyrimidinamine], the EC50 is at most 3.16 µM.

For the compound `FC(F)(F)c1cc2cc(CNc3cc(Cl)ncn3)ccc2[nH]1` [Example 13, 6-Chloro-N-{[2-(trifluoromethyl)-1H-indol-5-yl]methyl}-4-pyrimidinamine], the EC50 was at most 10 µM.

Turning to `FC(F)(F)c1cc2cc(CNc3cc(C4CC4)ncn3)cnc2[nH]1` [Example 14, 6-Cyclopropyl-N-{[2-(trifluoromethyl)-1H-pyrrolo[2,3-b]pyridin-5-yl]methyl}-4-pyrimidinamine], the EC50 is at most 10 µM. On the same count and under the same terms, next, `CC(C)(F)c1cc(NCc2cnc3[nH]c(C(F)(F)F)cc3c2)ncn1` [Example 15, 6-(1-Fluoro-1-methylethyl)-N-{[2-(trifluoromethyl)-1H-pyrrolo[2,3-b]pyridin-5-yl]methyl}-4-pyrimidinamine]: at most 1 µM. On to `[2H]C([2H])(Nc1cc(C(C)(C)F)ncn1)c1cnc2[nH]c(C(F)(F)F)cc2c1` [Example 15-d, 6-(1-Fluoro-1-methylethyl)-N-{[2-(trifluoromethyl)-1H-pyrrolo[2,3-b]pyridin-5-yl]methyl}-4-pyrimidinamine-d2], for which the EC50 is at most 1 µM. For `FC(F)(F)c1cc2cc(CNc3cc(Cl)ncn3)cnc2[nH]1` [Example 17, 6-Chloro-N-{[2-(trifluoromethyl)-1H-pyrrolo[2,3-b]pyridin-5-yl]methyl}-4-pyrimidinamine], the EC50 was at most 3.16 µM.

In the case of `CCc1cc(NCc2ccc3[nH]c(C(F)(F)F)cc3c2)ncn1` [Example 18, 6-Ethyl-N-{[2-(trifluoromethyl)-1H-indol-5-yl]methyl}-4-pyrimidinamine], the EC50 was at most 10 µM.

`CCc1ncnc(NCc2cnc3[nH]c(C(F)(F)F)cc3c2)c1C` [Example 19, 6-Ethyl-5-methyl-N-{[2-(trifluoromethyl)-1H-pyrrolo[2,3-b]pyridin-5-yl]methyl}-4-pyrimidinamine]: the EC50 was at most 10 µM.

With `Cc1c(NCc2cnc3[nH]c(C(F)(F)F)cc3c2)ncnc1C(F)F` [Example 23, 6-(difluoromethyl)-5-methyl-N-{[2-(trifluoromethyl)-1H-pyrrolo[2,3-b]pyridin-5-yl]methyl}-4-pyrimidinamine], the EC50 was at most 3.16 µM.

The term pEC50 denotes −log10 of the EC50, conventionally taken in molar units.
